The source of these data is patent US20220409617A1, “Drug Formulations and Methods of Treatment for Metabolic Disorders” (The Regents of the University of California, priority 2019, published 2022).

The structures appear in SMILES notation. Entries after “also recorded” stand apart in the source; their conditions may differ.

For the experiment, the system named is C16:0 ceramide generation (CerS6). Briefly: C16:0 ceramide levels in palmitate-treated MEFs (UPLC-MS/MS). Format: cell-based, mouse. The method, then: Plasma pharmacokinetic analysis of sphingolipid-like compound 893 was performed by Pharmaron Corporation (Beijing, China). C16:0 ceramide levels were quantified in cells using the method described in (T. Kasumov, et al., Anal. Biochem. 401: 154-161, 2010, the disclosure of which is incorporated herein by reference) with minor modifications. Cultured cells were washed twice in PBS and scraped into 250 μL of HPLC grade water and flash frozen until time of analysis. On the day of analysis, samples were thawed, and an aliquot used for protein quantification. For C16:0 ceramide levels in mouse liver, 25 mg of tissue was homogenized in 1 ml of ice-cold PBS using a mechanical probe homogenizer (VWR, Radnor, Pa.), protein levels quantified, and 50 μl of the homogenate diluted with 150 μl HPLC-grade water for C16:0 ceramide analysis. Fifty ng of C17:0 ceramide prepared in ethanol (#22532, Cayman Chemical, Ann Arbor, Mich.) was added into 200 μL of the thawed cell suspension or liver homogenate as an internal standard to control for varying extraction efficiency; 750 μL of an ice-cold 1:2 chloroform/methanol mixture was then added. Samples were sonicated for 30 min and phase separation induced by the addition of 250 μL each of chloroform and HPLC-grade water. Samples were centrifuged at 4° C. for 10 min and the lower lipid phase transferred to a clean tube. The remaining protein and aqueous layers were re-extracted with an additional 500 μL of chloroform. Lipid phases were combined and then dried under vacuum. Dried extract was re-constituted in 100% acetonitrile immediately before analysis. Samples were analyzed by ultra-performance liquid chromatography tandem mass spectrometry (UPLC-MS/MS) using a Waters Micromass Quattro Premier XE equipped with a Waters ACQUITY BEH C4 column (Waters Corp.). Samples were resolved starting at 60% mobile phase A (10 mM ammonium acetate and 0.05% formic acid in water) to 98% mobile phase B (60:40 acetonitrile:isopropanol) over 3 min with a linear gradient, held at 98% B for 1 min, then the column was equilibrated with 60% A for 1 min. The mass spectrometer was operated in positive ion mode with the following parameters: cone voltage 20 V, source temperature 125° C., desolvation temperature 400° C. Ion transition channels for MS/MS were 538→264 for C16:0 ceramide and 552→264 for C17:0 ceramide, both with a dwell time of 285 ms. Standard curves prepared from C16:0 ceramide (#860516, Avanti Polar Lipids, Alabaster, Ala.) dissolved in ethanol were used for quantitation and were linear from 4.1 nM-1,000 nM, with an R^2 of 0.98 or greater.
3T3-L1 cells were maintained in DMEM with 10% FBS and 1% penicillin-streptomycin until induced to differentiate. […]

As to `CCCCCCCCc1ccc([C@H]2CCN[C@@H]2CO)cc1.Cl` [compound 893], the “Palmitate-induced C16:0 ceramide production” value (MEFs, 3 h pre-treatment (893 5 μM, myriocin 10 μM, fumonisin B1 30 μM) then palmitate 250 μM 3 h) is given as “failed to block C16:0 ceramide generation; also recorded: without blocking palmitate-induced ceramide production”. Where the note is “inferred from C16:0 ceramide generation in palmitate-treated cells”, the CerS6 inhibition entry is “did not inhibit CerS6”.
